Test results taken from US20230128322A1, “SYK KINASE INHIBITORS AS TREATMENT FOR MALARIA” (Purdue Research Foundation, priority 2012, published 2023).
Entries after “also recorded” stand apart in the source; their conditions may differ. Counter-ions that a name gives are not always drawn.

Legend:
[1] = cited from earlier work
[2] = test system: band 3; assay: orthovanadate-induced band 3 tyrosine phosphorylation in erythrocytes; type: cell-based, human; details: 10 uM, 1 hour, then 2 mM orthovanadate
[3] = test system: parasite in RBCs; assay: microscopy of Giemsa stained blood smears of treated infected RBCs; type: cell-based
Protocol: FIGS. 9A-9E are microscopy photographs of standard blood smears. Smears were prepared on glass slides, fixed with 100% methanol, and stained in 10% Giemsa modified stain diluted in PBS for 10 minutes at room temperature.
FIGS. 10A-D are microscopy photographs of standard blood smears. Smears were prepared on glass slides, fixed with 100% methanol, and stained in 10% Giemsa modified stain diluted in PBS for 10 minutes at room temperature.
FIGS. 11A-C are microscopy photographs of standard blood smears. Smears were prepared on glass slides, fixed with 100% methanol, and stained in 10% Giemsa modified stain diluted in PBS for 10 minutes at room temperature.

[4] = test system: malaria infected RBCs; assay: ex vivo parasitemia in blood from malaria infected Vietnamese patients (PCR); type: cell-based, human; details: 48 hours of incubation, various concentrations
[5] = cited from earlier work; remark: listed apart in the source
[6] = test system: P. falciparum Dd2-infected erythrocytes; assay: parasitemia of synchronous P. falciparum Dd2 cultures
[7] = test system: P falciparum strain Palo Alto; assay: parasitemia / re-infection in P. falciparum-infected RBC cultures; type: cell-based, Plasmodium falciparum; details: for parasitemia level as % of the initial level: added 24 hours after start of culture, 72 hours after treatment; for effect on level of parasitemia during second cycle (re-infection): all concentrations examined (0.1-10 μM); for effect on level of parasitemia during first parasite cycle: first 48 hours, inhibitor added 24 hours after start
Protocol: Inhibition of Syk in RBCs. Infected and non-infected RBCs were treated with Syk kinase inhibitor 11 (FIG. 2) at different concentrations and at different times after the start of the cultures. Cultivation of P. falciparum-infected RBCs. Freshly drawn blood (Rh+) from healthy adults of both sexes was used following informed consent in all studies. […] To assess total parasitemia and the relative numbers of ring and trophozoite stage cells, slides were prepared from cultures at the indicated times and stained with Diff-Quik reagent prior to analysis. 1000 cells were then scored by microscopic analysis of the cell staining patterns. To evaluate the potential of Syk kinase inhibitors as a therapy for treating malaria, the effect of Syk kinase inhibitors on preventing re-infection of additional erythrocytes was evaluated. Based on the hypothesis that destabilization of the RBCM is beneficial to the parasite during egress, blocking RBCM destabilization by inhibiting Syk-mediated tyrosine phosphorylation of band 3 may result in a reduction in the spread of infected cells. To test this, erythrocyte cultures were infected with P. falciparum and then treated 24 hours later with the Syk kinase inhibitor (0, 0.1, 1, and 10 uM concentrations) (FIG. 2). In this set of experiments Syk kinase inhibitors have been added 24 hours after the start of the parasite cultures. Data are means of 2 or 4 experiments with standard deviations. The data presented represents the mean of two to four experiments. The level of parasitemia was then calculated at 24, 48, 72 and 96 hours after addition of the Syk kinase inhibitor. The efficiency of the Syk kinase inhibitor at different stages of the parasite development cycle was examined. […] Growth inhibition was calculated as a % re-invasion rate relative to untreated cultures. […] However, when infected cultures are treated at 24 hours after the initial infection, nearly 100% of parasite re-infection is inhibited. This time point was confirmed in a flow cytometric analysis where the number of merozoites released from isolated schizonts, were measured with or without Syk kinase inhibitor treatment. […] This is consistent with our proposed mechanism of the Syk kinase inhibitor blocking the necessary destabilization of the erythrocyte cell membrane required for egress. Inhibition of Syk in RBCs. Infected and non-infected RBCs were treated with Syk kinase inhibitor IV (FIG. 6) at different concentrations and at different times after the start of the cultures. Cultivation of P. falciparum-infected RBCs. Freshly drawn blood (Rh+) from healthy adults of both sexes was used following informed consent in all studies. […] To assess total parasitemia and the relative numbers of ring and trophozoite stage cells, slides were prepared from cultures at the indicated times and stained with Diff-Quik reagent prior to analysis, 1000 cells were then scored by microscopic analysis of the cell staining patterns. To test this, erythrocyte cultures were infected with P. falciparum and then treated 24 hours later with the Syk kinase inhibitor (0, 0.1, and 10 uM concentrations) (FIG. 6). The data presented represents the mean of two to four experiments. The level of parasitemia was then calculated at 24, 48, 72 and 96 hours after addition of the Syk kinase inhibitor.

[8] = test system: P. falciparum-infected RBCs; assay: vesiculation (microparticle release) of infected RBCs; type: cell-based, human; details: 10 μM, added 12 hours after infection
Protocol: Micro-vesicle Quantification. Infected and non-infected RBCs were washed 3× in RPMI 1640-HEPES medium and then resuspended at 10% hematocrit in the same medium containing a protease inhibitor cocktail (Sigma-Aldrich). […] Cells were then centrifuged at 2000×g to pellet the RBCs followed by a centrifugation step at 20,000×g for 10 minutes to pellet the RBC membranes. RBC vesicles present in the supernatant were labeled with anti-glycophorin A antibodies or with eosine-maleimide for labeling band 3, and quantified using a FACSCalibur cytometer (BD Biosciences) and the Cell Quest analysis software (BD Biosciences). Vesicles were selected using forward and side light scatter (FSC and SSC signals set to logarithmic amplification). A total of 40,000 events were analyzed. The amount of MPs released by infected RBCs was also measured. […] MPs were isolated from the supernatant by differential centrifugation (as in the INODs paper) and their amount was estimated measuring their band 3 content ([…] blots). Data are mean of 2 experiments with SD (in the second experiment we could measure only the ast times). […] To measure vesiculation, microparticles were isolated from the culture supernatants and quantified based on their band 3 content (determined by Western blotting) [Pantaleo, Free Radic Biol Med 2012, 52: 527-536].

[9] = test system: band 3; assay: band 3 tyrosine phosphorylation in parasite cultures (Western blot); type: cell-based, human; details: 10 μM added at 12 hours; at 48 hours post infection
Protocol: Immunoblot Analysis. […] The nitrocellulose membranes were then probed using either fluorescein-5'-maleimide (0.25 mg/ml) (Pierce) or anti-phosphotyrosine antibody (Santa Cruz, Calif.) and anti-Syk (Santa Cruz, Calif.) antibodies and with anti-band 3 (Sigma Aldrich). The blots were then analyzed using an 800 nm laser scanner (Odyssey, Licor, USA). […] In this set of experiments, Syk kinase inhibitors were added 12 hours after the start of the parasite cultures. The content of band 3 was measured by western blotting. The percent of band 3 phosphorylation was also measured. […] Band 3 phosphorylation levels have been normalized for the band 3 content ([…] blot). The expectation is that band 3 tyrosine phosphorylation would also be diminished in the Syk kinase inhibitor treated cultures. This is indeed the case. The % of band tyrosine phosphorylation was measured via Western blotting with an anti-phosphotyrosine antibody. […] The cultures were then normalized to the vandate induced level of phosphorylation. […] This is consistent with the hypothesis that just prior to egress the parasite would phosphorylate band 3, disrupt its interaction with ankyrin and result in a destabilized membrane that is more susceptible to breech as required during egress.

[10] = test system: artemisinin resistant parasites in malaria infected blood; assay: ex vivo parasite growth in artemisinin resistant blood of patient 4 (PCR); type: cell-based, human
Protocol: A blood sample was acquired from patient 4 prior to treatment with artemisinin and 13 day after treatment with artemisinin. […] These parasites are considered artemisinin resistant since there is a persistent parasitemia in the patient, even after artemisinin therapy.
Upon arrival of each sample, malaria infected RBCs were separated from plasma and leukocytes by three washes in wash medium (RPMI 1640 medium containing 2 mM glutamine, 24 mM NaHCO, 25 mM Hepes, 20 mM glucose, and 32 mg/m gentamicin, pH 6.80).
Smears of infected erythrocytes were obtained to assess initial parasitemia. Slides were fixed in 100% methanol and stained with 1/10 dilution of Giemsa solution, incubated for 10 min at room temperature, washed with water, dried, and observed under oil immersion lens (100×) for microscopic analysis. An aliquot was also saved for PCR analysis.
Malaria infected erythrocytes were re-suspended at 2% hematocrit in growth medium consisting of RPMI 1640 supplemented with 2 mM glutamine, 24 mM NaHCO, 25 mM Hepes, 20 mM glucose, and […] gentamicin, pH 6.80 and 10% heat inactivated human serum. Infected blood was aliquoted into 96 well plates pretreated with Syk kinase inhibitor H and incubated at 37° C. in CO2 incubation bags. After 48 hours of incubation, the cultures were processed and analyzed by PCR.

COc1ccc2c(c1)c(C=C1C(=O)Nc3ccc(S(N)(=O)=O)cc31)cn2CCCO [Compd 18]
Solubility [1]: <0.1 mg·L

Cc1ccc(NC(=O)c2ccc(CN3CCN(C)CC3)cc2)cc1Nc1nccc(-c2cccnc2)n1 [Imatinib mesylate, 4-[(4-Methyl-1-piperazinyl)methyl]-N-[4-methyl-3-[[4-(3-pyridinyl)-2-pyrimidinyl]amino]-phenyl]benzamide methanesulfonate]
band 3 tyrosine phosphorylation [2]: completely inhibited | parasite development in blood smears ([3]; 8 μM, up to 121 hour): able to delay the lifecycle of the parasite | parasite morphology in blood smears ([3]; 10 μM, listed as Gleevec, methanesulfonate): immature trophs from the first cycle that have not matured; also recorded: merozoites stuck or trapped inside the RBCs that cannot egress; also recorded: pyknotic parasites, or dead parasites in condensed form | parasitemia of infected patient blood [4]: effective at reducing the parasitemia | time post-dose at which Cmax is achieved ([5]; oral administration): 2 to 4 h | parasitemia during the first cycle ([6]; first 44 hours, added 20 hours after start): did not cause significant changes in parasitemia | re-infection at the second cycle ([6]; higher concentrations): fail to reinfect healthy erythrocytes | viability after 4 cycles of growth ([6]; higher concentrations): remain nonviable | effect on parasite cycles ([6]; starting at 8 μM): able to delay the cycles of the parasite

Cc1ccc(NC(=O)c2ccc(CN3CCNCC3)cc2)cc1Nc1nccc(-c2cccnc2)n1 [N-desmethyl derivative]
plasma AUC of metabolite as % of the AUC for imatinib ([5]; humans): about 15% | elimination half-life ([5]; oral administration in healthy volunteers): ~40 h

NCCNc1ncc(C(N)=O)c(Nc2cccc(C(F)(F)F)c2)n1 [Syk kinase inhibitor II, 2-(2-Aminoethylamino)-4-(3-trifluoromethylanilino)-pyrimidine-5-carboxamide]
parasitemia level as % of the initial level ([7]; 1 μM): ~80% | inhibition of parasite re-infection ([7]; 1 μM, added at 40 and 48 hours post initial infection): little impact | parasitemia level as % of the initial level ([7]; 10 μM): ~80% | inhibition at 1 µM ([7]; Plasmodium falciparum, 1 μM, added 24 hours after the initial infection, read-out: inhibition of parasite re-infection): ~100% | effect on level of parasitemia during second cycle (re-infection) [7]: significantly dropped the level of parasitemia | effect on level of parasitemia during first parasite cycle [7]: no effect | effect when culture is treated prior to infection with normal merozoites ([7]; pre-treatment of new culture): no effect in blocking the parasitemia | inhibition of vesiculation vs untreated parasite cultures [8]: ~50% | maximum level of tyrosine phosphorylated band 3 (relative to 2 mM vanadate) [9]: ~35% | parasitemia of infected patient blood [4]: completely eliminating parasitemia | IC50 ([10]; Homo sapiens, sample pre-treatment, parasitemia 0.1%, read-out: IC50 Syk kinase inhibitor II): < 0.6 µM | elimination of parasites in malaria infected blood ([10]; pre- and post-artemisinin treatment): completely eliminate parasites

COc1ccc(-c2cc3nccn3c(NC3N=CC=CC3C(N)=O)n2)cc1OC (centres unmarked) [Syk kinase inhibitor IV]
parasitemia level as % of the initial level ([7]; 10 μM): ~80% | effect on level of parasitemia during second cycle (re-infection) [7]: significantly dropped the level of parasitemia | effect on level of parasitemia during first parasite cycle [7]: did not cause changes of parasitemia
